In the supplement of paper PMC9663587:

Legend:
MDAMB175VII [1] = assay: GRmax, 72 h; higher = less effect;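 note: breast cell lines in 384-well plates, nine doses across a 10^4 range, Dye Drop imaging of viable cells vs DMSO and time-zero plates, GR 0 means no net growth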
EVSAT = assay: GRmax, 72 h; higher = less effect;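 note: breast cell lines in 384-well plates, nine doses across a 10^4 range, Dye Drop imaging of viable cells vs DMSO and time-zero plates, GR 0 means no net growth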
PDX1258 = assay: GRmax, 72 h; higher = less effect;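 note: breast cell lines in 384-well plates, nine doses across a 10^4 range, Dye Drop imaging of viable cells vs DMSO and time-zero plates, GR 0 means no net growth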
HCC1419 = assay: GRmax, 72 h; higher = less effect;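 note: breast cell lines in 384-well plates, nine doses across a 10^4 range, Dye Drop imaging of viable cells vs DMSO and time-zero plates, GR 0 means no net growth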
HCC38 = assay: GRmax, 72 h; higher = less effect
BT549 = assay: GRmax, 72 h; higher = less effect
SUM190PT = assay: GRmax, 72 h; higher = less effect
MDAMB436 = assay: GRmax, 72 h; higher = less effect
CAL851 = assay: GRmax, 72 h; higher = less effect
MDAMB175VII [2] = assay: area over the GR curve, 72 h; higher = more effect;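 note: Dye Drop or Deep Dye Drop imaging of viable cells in 384-well plates (Hoechst nuclei, LIVE/DEAD dye), nine half-log doses, GR normalized to DMSO controls and time-zero plates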
HCC1395 = assay: area over the GR curve, 72 h; higher = more effect;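 note: Dye Drop or Deep Dye Drop imaging of viable cells in 384-well plates (Hoechst nuclei, LIVE/DEAD dye), nine half-log doses, GR normalized to DMSO controls and time-zero plates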
MCF12A = assay: area over the GR curve, 72 h; higher = more effect;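 note: Dye Drop or Deep Dye Drop imaging of viable cells in 384-well plates (Hoechst nuclei, LIVE/DEAD dye), nine half-log doses, GR normalized to DMSO controls and time-zero plates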

CN(C)CC[C@H](CSc1ccccc1)Nc1ccc(S(=O)(=O)NC(=O)c2ccc(N3CCN(Cc4ccccc4-c4ccc(Cl)cc4)CC3)cc2)cc1[N+](=O)[O-] [ABT-737] (max 10 µM)
GRmax, 72 h (MDAMB175VII [1]): -0.101 GR
GRmax, 72 h (EVSAT): 0.697 GR
GRmax, 72 h (PDX1258): 0.758 GR
GRmax, 72 h (HCC1419): 0.471 GR
GRmax, 72 h (HCC38): -0.421 GR
GRmax, 72 h (BT549): 0.936 GR
GRmax, 72 h (SUM190PT): -0.475 GR
GRmax, 72 h (MDAMB436): 0.815 GR
GRmax, 72 h (CAL851): 0.934 GR
area over the GR curve (MDAMB175VII [2]): 0.0499 GR
area over the GR curve (HCC1395): -0.0157 GR
area over the GR curve (MCF12A): 0.0052 GR

CO[C@@H](C)Cn1c(=O)n(C)c2cnc3ccc(-c4cncc(C(C)(C)O)c4)cc3c21 (max 10 µM)
GRmax, 72 h (MDAMB175VII [1]): -0.938 GR
GRmax, 72 h (EVSAT): -0.384 GR
GRmax, 72 h (PDX1258): -0.344 GR
GRmax, 72 h (HCC1419): -0.769 GR
GRmax, 72 h (HCC38): -0.0301 GR
GRmax, 72 h (BT549): -0.0177 GR
GRmax, 72 h (SUM190PT): -0.5 GR
GRmax, 72 h (MDAMB436): 0.323 GR
GRmax, 72 h (CAL851): -0.0445 GR
area over the GR curve (MDAMB175VII [2]): 1.32 GR
area over the GR curve (HCC1395): 0.618 GR
area over the GR curve (MCF12A): 0.476 GR

CN(C)C/C=C/C(=O)Nc1ccc(C(=O)Nc2cccc(Nc3ncc(Cl)c(-c4c[nH]c5ccccc45)n3)c2)cc1 [THZ1] (max 1 µM)
GRmax, 72 h (MDAMB175VII [1]): -0.438 GR
GRmax, 72 h (EVSAT): -0.245 GR
GRmax, 72 h (PDX1258): -0.716 GR
GRmax, 72 h (HCC1419): -0.386 GR
GRmax, 72 h (HCC38): -0.568 GR
GRmax, 72 h (BT549): -0.312 GR
GRmax, 72 h (SUM190PT): -0.467 GR
GRmax, 72 h (MDAMB436): -0.0798 GR
GRmax, 72 h (CAL851): -0.549 GR
area over the GR curve (MDAMB175VII [2]): 0.487 GR
area over the GR curve (HCC1395): 0.609 GR
area over the GR curve (MCF12A): 0.256 GR

CS(=O)(=O)N1CCN(Cc2cc3nc(-c4cccc5[nH]ncc45)nc(N4CCOCC4)c3s2)CC1 [Pictilisib/GDC0941] (max 10 µM)
GRmax, 72 h (MDAMB175VII [1]): -0.903 GR
GRmax, 72 h (EVSAT): -0.565 GR
GRmax, 72 h (PDX1258): 0.0518 GR
GRmax, 72 h (HCC1419): -0.21 GR
GRmax, 72 h (HCC38): 0.357 GR
GRmax, 72 h (BT549): 0.146 GR
GRmax, 72 h (SUM190PT): 0.0145 GR
GRmax, 72 h (MDAMB436): 0.285 GR
GRmax, 72 h (CAL851): -0.0252 GR
area over the GR curve (MDAMB175VII [2]): 0.417 GR
area over the GR curve (HCC1395): 0.226 GR
area over the GR curve (MCF12A): 0.089 GR

CN1CCN(C(=O)c2ccc3cc(CCNc4ncnc5ccc(C#N)cc45)ccc3c2)CC1 [senexin b] (max 10 µM)
GRmax, 72 h (MDAMB175VII [1]): 0.205 GR
GRmax, 72 h (EVSAT): 0.642 GR
GRmax, 72 h (PDX1258): 0.603 GR
GRmax, 72 h (HCC1419): 0.445 GR
GRmax, 72 h (HCC38): 0.614 GR
GRmax, 72 h (BT549): 0.675 GR
GRmax, 72 h (SUM190PT): 0.248 GR
GRmax, 72 h (MDAMB436): 0.429 GR
GRmax, 72 h (CAL851): 0.615 GR
area over the GR curve (MDAMB175VII [2]): 0.427 GR
area over the GR curve (HCC1395): 0.264 GR
area over the GR curve (MCF12A): 0.11 GR

CC1(N)CCN(c2cnc(-c3cccc(Cl)c3Cl)c(N)n2)CC1 [SHP099] (max 10 µM)
GRmax, 72 h (MDAMB175VII [1]): -0.0734 GR
GRmax, 72 h (EVSAT): 0.952 GR
GRmax, 72 h (PDX1258): 1.09 GR
GRmax, 72 h (HCC1419): 0.819 GR
GRmax, 72 h (HCC38): 0.523 GR
GRmax, 72 h (BT549): 0.825 GR
GRmax, 72 h (SUM190PT): 0.749 GR
GRmax, 72 h (MDAMB436): 0.941 GR
GRmax, 72 h (CAL851): 0.632 GR
area over the GR curve (MDAMB175VII [2]): 0.238 GR
area over the GR curve (HCC1395): 0.0738 GR
area over the GR curve (MCF12A): 0.0144 GR

CNC(=O)c1cccc(-c2ccc3c(N4CCOC[C@@H]4C)nc(N4CCOC[C@@H]4C)nc3n2)c1 [AZD2014] (max 10 µM)
GRmax, 72 h (MDAMB175VII [1]): -0.756 GR
GRmax, 72 h (EVSAT): -0.21 GR
GRmax, 72 h (PDX1258): -0.118 GR
GRmax, 72 h (HCC1419): -0.12 GR
GRmax, 72 h (HCC38): 0.195 GR
GRmax, 72 h (BT549): 0.089 GR
GRmax, 72 h (SUM190PT): -0.514 GR
GRmax, 72 h (MDAMB436): 0.519 GR
GRmax, 72 h (CAL851): 0.114 GR
area over the GR curve (MDAMB175VII [2]): 1.35 GR
area over the GR curve (HCC1395): 0.582 GR
area over the GR curve (MCF12A): 0.529 GR

O=C(c1cc(Cc2n[nH]c(=O)c3ccccc23)ccc1F)N1CCN(C(=O)C2CC2)CC1 [Olaparib/AZD2281] (max 10 µM)
GRmax, 72 h (MDAMB175VII [1]): 0.466 GR
GRmax, 72 h (EVSAT): 0.773 GR
GRmax, 72 h (PDX1258): 0.577 GR
GRmax, 72 h (HCC1419): 0.632 GR
GRmax, 72 h (HCC38): 0.425 GR
GRmax, 72 h (BT549): 0.543 GR
GRmax, 72 h (SUM190PT): 0.545 GR
GRmax, 72 h (MDAMB436): 0.238 GR
GRmax, 72 h (CAL851): 0.387 GR
area over the GR curve (MDAMB175VII [2]): 0.0102 GR
area over the GR curve (HCC1395): 0.253 GR
area over the GR curve (MCF12A): 0.0468 GR

O=C1NC(=NCc2cccs2)SC1=Cc1ccc2ncccc2c1 [R0-3306] (max 10 µM)
GRmax, 72 h (MDAMB175VII [1]): -0.0257 GR
GRmax, 72 h (EVSAT): -0.27 GR
GRmax, 72 h (PDX1258): -0.274 GR
GRmax, 72 h (HCC1419): 0.246 GR
GRmax, 72 h (HCC38): -0.239 GR
GRmax, 72 h (BT549): -0.0782 GR
GRmax, 72 h (SUM190PT): -0.11 GR
GRmax, 72 h (MDAMB436): 0.0289 GR
GRmax, 72 h (CAL851): -0.0866 GR
area over the GR curve (MDAMB175VII [2]): 0.239 GR
area over the GR curve (HCC1395): 0.418 GR
area over the GR curve (MCF12A): 0.041 GR

CC(C)n1nc(-c2ccc3oc(N)nc3c2)c2c(N)ncnc21 [INK128/MLN0128] (max 3.162 µM)
GRmax, 72 h (MDAMB175VII [1]): -0.886 GR
GRmax, 72 h (EVSAT): -0.31 GR
GRmax, 72 h (PDX1258): -0.138 GR
GRmax, 72 h (HCC1419): -0.147 GR
GRmax, 72 h (HCC38): -0.0087 GR
GRmax, 72 h (BT549): 0.0717 GR
GRmax, 72 h (SUM190PT): -0.425 GR
GRmax, 72 h (MDAMB436): 0.211 GR
GRmax, 72 h (CAL851): 0.016 GR
area over the GR curve (MDAMB175VII [2]): 1.17 GR
area over the GR curve (HCC1395): 0.557 GR
area over the GR curve (MCF12A): 0.495 GR

Nc1cc(C(F)(F)F)c(-c2cc(N3CCOCC3)nc(N3CCOCC3)n2)cn1 [Buparlisib/NVP-BKM120] (max 10 µM)
GRmax, 72 h (MDAMB175VII [1]): -0.976 GR
GRmax, 72 h (EVSAT): -0.499 GR
GRmax, 72 h (PDX1258): -0.392 GR
GRmax, 72 h (HCC1419): -0.496 GR
GRmax, 72 h (HCC38): -0.276 GR
GRmax, 72 h (BT549): -0.272 GR
GRmax, 72 h (SUM190PT): -0.342 GR
GRmax, 72 h (MDAMB436): -0.287 GR
GRmax, 72 h (CAL851): -0.32 GR
area over the GR curve (MDAMB175VII [2]): 0.705 GR
area over the GR curve (HCC1395): 0.308 GR
area over the GR curve (MCF12A): 0.168 GR

COc1cccc(OCCCN)c1-c1cc(Nc2cnc(C#N)cn2)n[nH]1
GRmax, 72 h (MDAMB175VII [1]): 0.0945 GR
GRmax, 72 h (EVSAT): 0.713 GR
GRmax, 72 h (PDX1258): -0.457 GR
GRmax, 72 h (HCC1419): 0.248 GR
GRmax, 72 h (HCC38): -0.556 GR
GRmax, 72 h (BT549): -0.422 GR
GRmax, 72 h (SUM190PT): -0.101 GR
GRmax, 72 h (MDAMB436): 0.0078 GR
GRmax, 72 h (CAL851): 0.0306 GR
area over the GR curve (MDAMB175VII [2]): 0.245 GR
area over the GR curve (HCC1395): 0.832 GR
area over the GR curve (MCF12A): 0.589 GR

Cc1nn(C)c(COc2ccc(N3CCN(S(=O)(=O)N(C)C)CC3)cc2)c1-c1cccc2c(CCCOc3cccc4ccccc34)c(C(=O)O)n(CCN3CCOCC3)c12 (max 10 µM)
GRmax, 72 h (MDAMB175VII [1]): 0.705 GR
GRmax, 72 h (EVSAT): 0.901 GR
GRmax, 72 h (PDX1258): 0.919 GR
GRmax, 72 h (HCC1419): 0.708 GR
GRmax, 72 h (HCC38): 0.887 GR
GRmax, 72 h (BT549): 0.954 GR
GRmax, 72 h (SUM190PT): 0.114 GR
GRmax, 72 h (MDAMB436): 0.873 GR
GRmax, 72 h (CAL851): 1.01 GR
area over the GR curve (MDAMB175VII [2]): 0.0271 GR
area over the GR curve (HCC1395): -0.0037 GR
area over the GR curve (MCF12A): -0.0165 GR
